We go through one molecule from article PMC4476799, “Englerin A Agonizes the TRPC4/C5 Cation Channels to Inhibit Tumor Cell Line Proliferation” (PLoS ONE, 2015).

In this experiment the target is T1, TRPC4 (Homo sapiens, UniProt Q9UBN4).
T1 construct: host or cells: Flp-In T-REx-293 (called HEK293T with Dox-inducible TRPC4)
T1 sequence (Q9UBN4 1-977): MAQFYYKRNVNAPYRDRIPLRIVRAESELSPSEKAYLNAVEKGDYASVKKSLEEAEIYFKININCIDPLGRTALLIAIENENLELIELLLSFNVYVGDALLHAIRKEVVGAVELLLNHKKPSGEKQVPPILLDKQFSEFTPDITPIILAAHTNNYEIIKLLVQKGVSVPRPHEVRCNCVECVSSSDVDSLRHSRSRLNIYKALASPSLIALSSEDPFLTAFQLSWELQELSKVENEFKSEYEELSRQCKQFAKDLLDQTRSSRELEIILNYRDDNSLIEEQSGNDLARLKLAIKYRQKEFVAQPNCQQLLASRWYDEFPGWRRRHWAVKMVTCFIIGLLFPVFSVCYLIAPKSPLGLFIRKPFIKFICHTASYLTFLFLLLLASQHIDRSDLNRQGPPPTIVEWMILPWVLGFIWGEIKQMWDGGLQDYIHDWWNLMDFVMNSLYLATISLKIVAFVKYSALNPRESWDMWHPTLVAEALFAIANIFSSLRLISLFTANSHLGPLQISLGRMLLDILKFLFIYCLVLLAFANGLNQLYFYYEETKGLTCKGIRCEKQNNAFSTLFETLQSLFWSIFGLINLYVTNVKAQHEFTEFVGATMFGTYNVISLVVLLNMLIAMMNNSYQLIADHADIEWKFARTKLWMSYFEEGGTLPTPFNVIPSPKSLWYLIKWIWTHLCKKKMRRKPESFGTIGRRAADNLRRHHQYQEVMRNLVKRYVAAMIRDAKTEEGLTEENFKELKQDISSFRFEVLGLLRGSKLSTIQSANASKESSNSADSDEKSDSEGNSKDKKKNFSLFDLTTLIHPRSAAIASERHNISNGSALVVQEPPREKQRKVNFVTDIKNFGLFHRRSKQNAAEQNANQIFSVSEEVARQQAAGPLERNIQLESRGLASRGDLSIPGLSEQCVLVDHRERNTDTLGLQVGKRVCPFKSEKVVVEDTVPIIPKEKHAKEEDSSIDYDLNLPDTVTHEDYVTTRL
The experiment is described as follows: Electrophysiology (QPatch-HT automated patch clamp, voltage ramp). The experiment is classed as cell-based. Particulars: TRPC4 expressing HEK293T cells. Here is the method: TRPC4 currents were recorded from HEK293T cells with Dox-inducible TRPC4 on the QPatch-HT automated patch clamp system at room temperature (21–24°C) (Biolin Scientific, Stockholm, Sweden). The internal solution contained (in mM): 150 Cs-aspartate, 2 MgCl2, 0.36 CaCl2, 1 EGTA, 4 MgATP, 0.3 NaGTP and 10 HEPES, pH = 7.20 with CsOH (calculated free [Ca^2+] = 100 nM using WebMaxChelator http://www.stanford.edu/~cpatton/maxc.html, assuming an ionic strength of 0.16). The standard external solution contained (in mM): 150 NaCl, 4 KCl, 2 CaCl2, 1 MgCl2, 10 HEPES and 10 D-glucose (pH = 7.40) with NaOH. Currents were elicited by a voltage ramp protocol consisting of a 50 ms step to −100 mV, followed by a 200 ms ramp to +100 mV and 10 ms at +100 mV. Voltage ramps were applied every 10 s from a holding potential of 0 mV. Results were expressed as means ± S.E.M.
(In general: The patch-clamp technique gives a direct electrical read-out from membranes.)

As to `CC(C)[C@@]12C[C@@H](O)[C@@](C)(O1)[C@@H]1CC[C@@H](C)[C@H]1[C@@H]2OC(=O)/C=C/c1ccccc1` [Englerin B], the induced current result is given as “did not induce current”.
